# According to ChEMBL document CHEMBL1201862, “PubChem BioAssay data set” (2004):
#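 In this assay, cells in 96-well plates receive the compound at five concentrations for 48 hours. Endpoints are linearly interpolated between the surrounding concentrations. The concentration for 50% growth inhibition is given as GI50.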 Active and inactive are the calls of the source. No stated cut-off is given here; in the data, active = GI50 up to about 1.1 µM and inactive = higher.
# How the values were obtained:
# Test in all cases: DTP human tumour cell line panel, 48 h
# [1] = system: HL-60
# [2] = system: MDA-MB-435
# [3] = system: Hs-578T
# [4] = system: MOLT-4
# [5] = system: SNB-75
# [6] = system: K562
# [7] = system: CAKI-1
# [8] = system: HCT-116
# [9] = system: NCI-H522
# [10] = system: OVCAR-5
# [11] = system: HOP-62
# [12] = system: UACC-257
# [13] = system: MDA-MB-231
# [14] = system: T47D
# [15] = system: SK-MEL-5
# [16] = system: SW-620
# [17] = system: SK-MEL-2
# [18] = system: OVCAR-4
# [19] = system: SF-268
# [20] = system: SR
# [21] = system: SK-MEL-28
# [22] = system: HCC 2998
# [23] = system: EKVX
# [24] = system: OVCAR-8
# [25] = system: PC-3
# [26] = system: SN12C
# [27] = system: ACHN
# [28] = system: NCI-H460
# [29] = system: SNB-19
# [30] = system: A498
# [31] = system: KM12
# [32] = system: 786-0
# [33] = system: A549
# [34] = system: HT-29
# [35] = system: HCT-15
# [36] = system: LOX IMVI
# [37] = system: SK-OV-3
# [38] = system: MCF7
# [39] = system: SF-295
# [40] = system: OVCAR-3
# [41] = system: SF-539
# [42] = system: IGROV-1
# [43] = system: M14
# [44] = system: DU-145
# [45] = system: COLO 205
# [46] = system: CCRF-CEM
# [47] = system: NCI-H226
# [48] = system: HOP-92
# [49] = system: RXF 393
# [50] = system: U-251
# [51] = system: TK-10
# [52] = system: UACC-62
# [53] = system: NCI/ADR-RES
# [54] = system: NCI-H23
# [55] = system: Malme-3M
# [56] = system: MDA-N
# [57] = system: UO-31
# [58] = system: RPMI-8226
structure (smiles),measurement,setting,value
CN(C)CCSC1=Nc2ccc(Cl)cc2C(c2ccccc2Cl)=NC1,GI50,[1],19.3 µM (inactive)
same,GI50,[2],13.8 µM (inactive)
same,GI50,[3],18.6 µM (inactive)
same,GI50,[4],33.3 µM (inactive)
same,GI50,[5],18.2 µM (inactive)
same,GI50,[6],20.5 µM (inactive)
OC1NC2Nc3ccccc3NC2NC1O (stereo not given),GI50,[7],> 100 µM (inactive)
same,GI50,[8],> 100 µM (inactive)
same,GI50,[9],> 100 µM (inactive)
same,GI50,[10],> 100 µM (inactive)
same,GI50,[11],> 100 µM (inactive)
same,GI50,[1],> 100 µM (inactive)
same,GI50,[12],> 100 µM (inactive)
same,GI50,[13],> 100 µM (inactive)
same,GI50,[14],> 100 µM (inactive)
same,GI50,[15],> 100 µM (inactive)
same,GI50,[16],> 100 µM (inactive)
same,GI50,[17],> 100 µM (inactive)
same,GI50,[18],> 100 µM (inactive)
same,GI50,[19],> 100 µM (inactive)
same,GI50,[20],> 100 µM (inactive)
same,GI50,[21],> 100 µM (inactive)
same,GI50,[22],> 100 µM (inactive)
same,GI50,[23],> 100 µM (inactive)
same,GI50,[24],> 100 µM (inactive)
same,GI50,[25],> 100 µM (inactive)
same,GI50,[26],> 100 µM (inactive)
same,GI50,[27],> 100 µM (inactive)
same,GI50,[28],> 100 µM (inactive)
same,GI50,[29],> 100 µM (inactive)
same,GI50,[2],> 100 µM (inactive)
same,GI50,[30],> 100 µM (inactive)
same,GI50,[3],> 100 µM (inactive)
same,GI50,[31],> 100 µM (inactive)
same,GI50,[4],> 100 µM (inactive)
same,GI50,[32],> 100 µM (inactive)
same,GI50,[33],> 100 µM (inactive)
same,GI50,[34],> 100 µM (inactive)
same,GI50,[5],> 100 µM (inactive)
same,GI50,[35],> 100 µM
same,GI50,[36],> 100 µM (inactive)
same,GI50,[37],> 100 µM (inactive)
same,GI50,[38],> 100 µM (inactive)
same,GI50,[39],> 100 µM (inactive)
same,GI50,[40],> 100 µM (inactive)
same,GI50,[41],> 100 µM (inactive)
same,GI50,[42],> 100 µM (inactive)
same,GI50,[43],> 100 µM (inactive)
same,GI50,[44],> 100 µM (inactive)
same,GI50,[45],> 100 µM (inactive)
same,GI50,[46],> 100 µM (inactive)
same,GI50,[47],> 100 µM (inactive)
same,GI50,[48],30.8 µM (inactive)
same,GI50,[49],> 100 µM (inactive)
same,GI50,[50],> 100 µM (inactive)
same,GI50,[51],> 100 µM (inactive)
same,GI50,[52],> 100 µM (inactive)
same,GI50,[53],> 100 µM (inactive)
same,GI50,[54],> 100 µM (inactive)
same,GI50,[55],> 100 µM (inactive)
same,GI50,[6],> 100 µM (inactive)
[N-]=[N+]=Nc1c(Cc2ccccc2)c(Cl)nc2ccccc12,GI50,[7],21.4 µM (inactive)
same,GI50,[8],17.5 µM (inactive)
same,GI50,[9],27.5 µM (inactive)
same,GI50,[10],31 µM (inactive)
same,GI50,[11],22.4 µM (inactive)
same,GI50,[1],23.8 µM (inactive)
same,GI50,[12],33.5 µM (inactive)
same,GI50,[13],18.7 µM (inactive)
same,GI50,[14],32.6 µM (inactive)
same,GI50,[15],15.4 µM (inactive)
same,GI50,[16],33.4 µM (inactive)
same,GI50,[17],16.6 µM (inactive)
same,GI50,[18],42 µM (inactive)
same,GI50,[19],33.6 µM (inactive)
same,GI50,[21],45.5 µM (inactive)
same,GI50,[22],49.4 µM (inactive)
same,GI50,[23],27.2 µM (inactive)
same,GI50,[24],20.8 µM (inactive)
same,GI50,[25],25.6 µM (inactive)
same,GI50,[26],23.6 µM (inactive)
same,GI50,[27],25.1 µM (inactive)
same,GI50,[28],35.4 µM (inactive)
same,GI50,[29],19.1 µM (inactive)
same,GI50,[2],13.6 µM (inactive)
same,GI50,[30],26.2 µM (inactive)
same,GI50,[3],21.3 µM (inactive)
same,GI50,[31],16.3 µM (inactive)
same,GI50,[4],28.8 µM (inactive)
same,GI50,[32],35.6 µM (inactive)
same,GI50,[33],36.3 µM (inactive)
same,GI50,[34],31.6 µM (inactive)
same,GI50,[5],22.6 µM (inactive)
same,GI50,[35],35.2 µM
same,GI50,[36],18.4 µM (inactive)
same,GI50,[37],53 µM (inactive)
same,GI50,[56],21.9 µM (inactive)
same,GI50,[38],21.3 µM (inactive)
same,GI50,[39],22.2 µM (inactive)
same,GI50,[40],12.5 µM (inactive)
same,GI50,[57],28.6 µM (inactive)
same,GI50,[41],21.7 µM (inactive)
same,GI50,[42],26.6 µM (inactive)
same,GI50,[43],20.8 µM (inactive)
same,GI50,[44],42.8 µM (inactive)
same,GI50,[45],15.1 µM (inactive)
same,GI50,[46],39.8 µM (inactive)
same,GI50,[47],16 µM (inactive)
same,GI50,[58],38.3 µM (inactive)
same,GI50,[48],20.2 µM (inactive)
same,GI50,[49],15.7 µM (inactive)
same,GI50,[51],23.8 µM (inactive)
same,GI50,[52],22.6 µM (inactive)
same,GI50,[53],22.4 µM (inactive)
same,GI50,[54],28.8 µM (inactive)
same,GI50,[55],21.1 µM (inactive)
same,GI50,[6],23.9 µM (inactive)
O=C1C=CC2(C=C1)CCNC1=C2C(=O)c2[nH]cnc2C1=O,GI50,[29],13.9 µM (inactive)
same,GI50,[42],15.2 µM (inactive)
same,GI50,[55],2.26 µM (inactive)
